# Publication PMC6108835, “Target-Based Discovery of an Inhibitor of the Regulatory Phosphatase PPP1R15B” (Cell, 2018)
# Assays:
# [1] = system: eIF2α phosphorylation (HeLa cells); experiment: Protein analyses on immunoblots, HeLa cells; type: cell-based, human; settings: for eIF2α phosphorylation: 0-10 h
# Method: (§1) HeLa or MEF cells (90,000 cells/mL) were plated in 12-well plates (1 mL/well). The following day cells were treated as indicated; the medium was removed, fresh medium containing compound added and incubated at 37°C for the times indicated. The time course was performed in reverse order to facilitate collecting all samples at the same time. At the end of treatment cells were washed two times with ice-cold PBS and lysed in 150 μL Laemmli Buffer. Lysates were transferred to 1.5 mL eppendorf tubes, boiled at 95°C for 5 min, sonicated and resolved on Bolt SDS-PAGE 4%–12% Bis-Tris gels (ThermoFisher Scientific). Proteins were transferred to the nitrocellulose membrane using the iBlot 2 system (ThermoFisher Scientific). Membrane was blocked in 5% skimmed milk for 30 min and then probed with primary antibodies followed by incubation with the appropriate horseradish peroxidase-conjugated secondary antibodies (Promega). Proteins were visualized using ECL Prime (GE Healthcare) and imaged in the Chemi-Smart 5000 (Vilber-Lourmat, France) or ChemiDoc Touch (BioRad). Bands were quantified using ImageJ (NIH, USA). The following primary antibodies were used: e-IF2α-P (ThermoFisher Scientific (#44-728G), 1:1,000), e-IF2α (Abcam (#ab5369), 1:1,000), tubulin (Sigma-Aldrich (#T5168), 1:4,000), BiP (BD Biosciences PharMingen (#610978), 1:1,000), ATF4 (Santa Cruz Biotechnology (#sc-200), 1:500), Ppp1r15a (Proteintech (#10449-1-AP), 1:1,000), Ppp1r15b (Proteintech (#14634-1-AP), 1:1,000) and CHOP (ABR Affinity BioReagents (#MA1-250), 1:1,000).
# R15b −/− cells = experiment: eIF2α phosphorylation and translation rates in R15b −/− MEF cells; type: cell-based, mouse; settings: 10 μM
# Method: as §1, with “The following primary antibodies were used: e-IF2α-P (ThermoFisher Scientific (#44-728G), 1:1,000), e-IF2α (Abcam (#ab5369), 1:1,000), tubulin (Sigma-Aldrich (#T5168), 1:4,000), BiP (BD Biosciences PharMingen (#610978), 1:1,000), ATF4 (Santa Cruz Biotechnology (#sc-200), 1:500), Ppp1r15a (Proteintech (#10449-1-AP), 1:1,000), Ppp1r15b (Proteintech (#14634-1-AP), 1:1,000) and CHOP (ABR Affinity BioReagents (#MA1-250), 1:1,000).” left out
# HeLa or MEF cells (90,000 cells/mL) were plated in 12-well plates (1 mL/well). […] The gels were then exposed to a Storage Phosphor Screen (GE Healthcare) and analyzed by phosphorimaging using a Typhoon Imager Scanner (GE Healthcare).
# [2] = Body weight gain of wild-type mice under chronic treatment; type: in vivo, mouse; settings: various doses once a day (2 mg/kg for 10 weeks; 15 days at indicated doses)
# Method: The acetate salts of Raphin1 or GBZ were dissolved in water and sonicated for 10 min. The solution was aliquoted and kept at −20°C until use. Once thawed a tube was kept at 4°C and used within 24 hr. The compounds were administered by oral gavage.
# Raphin1 was administered at 2 mg/kg (unless otherwise specified). Mice received a single dose or were treated chronically – one time per day. Control mice were treated with vehicle (water) only.
# Mice were weighted on a dedicated scale (A&D, FX3000iWP). 4 weeks old treatment and test naive C57BL/6J males and females (Figure 6B) and 2 months old treatment and test naive C3H/B6 males (Figure S6A) were used.
# HD^82Q mice = experiment: Treatment of HD^82Q (N171-82Q) mice, model of Huntington's disease; type: in vivo, mouse
# Method: To produce an experimental group, HD^82Q transgenic males were crossed with C3H/B6 F1 wild-type females. 4 weeks old treatment- and test-naive transgenic mice and their wild-type littermate controls were randomized in different groups and treated with Raphin1 for the indicated time. Only males HD^82Q were used. Mice weight was collected weekly or bi-weekly.
# Mice were culled by cervical dislocation, a part of cortex was extracted, fresh-frozen in liquid nitrogen and kept at −80°C until use. Tissue was homogenized and lysed in Laemmli Buffer (1 mL for 0.5 mg tissue). Lysates were boiled at 95°C for 5 min, sonicated and resolved on Bolt SDS-PAGE 4%–12% Bis-Tris gels (ThermoFisher Scientific). Proteins were transferred to the nitrocellulose membrane (Bio-Rad). Membrane was blocked in 5% skimmed milk for 30 min and then probed with primary antibodies followed by incubation with the appropriate horseradish peroxidase-conjugated secondary antibodies (Promega). Proteins were visualized using ECL Prime (GE Healthcare) and imaged in the Chemi-Smart 5000 (Vilber-Lourmat, France). SDS-resistant huntingtin assemblies were quantified using ImageJ (NIH, USA). The huntingtin assemblies were analyzed using the huntingtin 2B4 antibody (Euromedex (#HU-2B4), 1:1,000).
# Mice were culled by cervical dislocation, a brain was fresh frozen in the O.C.T. compound (VWR International) and sectioned (14 μm) using Cryostat (Leica CM3050 S). […]
# For quantification, motor cortex was imaged using a Nikon TiE automated fluorescence microscope under the control of NIS Elements software (Nikon UK). Images were taken using a 40X 0.95 NA lens, fluorescence filter sets matched to Hoechst 33342 and Alexa 488 and an Andor Neo sCMOS camera. […] Images were analyzed using the ‘general analysis’ tool in NIS Elements. […] The total number of nuclei per field and the total number of inclusions inside nuclei per field were counted in each filed. […] To check for systematic bias in our analysis due to variations in sample processing we also measured the average fluorescence intensity across the whole field. […]
# PP1c = PP1c (Homo sapiens, UniProt P36873); experiment: PP1c catalytic activity assay (DiFMUP, EnzChek); settings: his-PP1c 30 nM
# Method: Residual activity of PP1c was measured using the EnzChek Phosphatase Assay Kit (ThermoFisher Scientific) according to the supplier’s instructions, with minor modifications.
# [3] = HD^82Q mice, 2 mg/kg daily from 4 weeks of age, 2-month-old
# Sequence of PP1c (P36873 1-322): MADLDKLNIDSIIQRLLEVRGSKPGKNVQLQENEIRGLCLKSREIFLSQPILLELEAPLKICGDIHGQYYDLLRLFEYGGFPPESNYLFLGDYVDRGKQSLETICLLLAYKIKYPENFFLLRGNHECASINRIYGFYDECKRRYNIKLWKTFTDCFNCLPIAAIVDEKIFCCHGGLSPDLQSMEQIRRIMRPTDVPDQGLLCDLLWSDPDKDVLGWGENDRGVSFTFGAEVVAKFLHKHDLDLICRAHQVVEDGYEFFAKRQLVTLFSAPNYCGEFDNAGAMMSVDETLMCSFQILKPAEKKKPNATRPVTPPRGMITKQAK
smiles,measurement,setting,value
"[H]/N=C(\N)NN=Cc1cccc(Cl)c1Cl [Raphin1, (E)-2-(2,3-dichlorobenzylidene)hydrazine-1-carboximidamide]",ATF4 and R15A induction,[1]; 10 μM,induced
same,Stress marker BiP,[1]; 10 μM,did not increase
same,eIF2α phosphorylation,[1]; 20 μM,persistent phosphorylation
same,eIF2α phosphorylation,"[1]; unstressed, 10 μM",rapidly and transiently increased
same,Measurable effects on eIF2α phosphorylation and translation,R15b −/− cells,abolished
same,Adverse effects on weight gain,[2],no obvious adverse effects
same,Weight of HD^82Q mice,HD^82Q mice; 2 mg/kg once a day by oral gavage from 4 to ∼10 weeks of age,improved
same,Nuclear huntingtin inclusions in the cortex,HD^82Q mice; [3],decreased
same,SDS-insoluble huntingtin assemblies in cortex,HD^82Q mice; [3],decreased
same,Inhibition of PP1c (dephosphorylation of difluoro-4-methylumbelliferyl phosphate),PP1c,did not inhibit
